Columns and labels:
[1] = Apparent permeability across basolateral to apical side in dog MDCK-MDR1 cells incubated for 60 mins by HPLC analysis; format: ADME, cell-based, Canis lupus familiaris
[2] = Apparent permeability across apical to basolateral side in dog MDCK-MDR1 cells incubated for 60 mins by HPLC analysis; format: ADME, cell-based, Canis lupus familiaris
Integrin alpha-V/beta-1 = Integrin alpha-V/beta-1 (Homo sapiens, UniProt P05556+P06756); assay: Inhibition of recombinant human Integrin alphaVbeta1 using TMB as substrate incubated for 2 hrs in presence of fibronectin by ELISA; format: protein-complex assay
Integrin alpha-V/beta-3 = Integrin alpha-V/beta-3 (Homo sapiens, UniProt P05106+P06756); assay: Inhibition of recombinant human Integrin alphaVbeta3 using TMB as substrate incubated for 2 hrs in presence of vitronectin by ELISA; format: protein-complex assay
Integrin alpha-V/beta-8 = Integrin alpha-V/beta-8 (Homo sapiens, UniProt P06756+P26012); assay: Inhibition of recombinant human Integrin alphaVbeta8 using TMB as substrate incubated for 2 hrs in presence of LAP by ELISA; format: protein-complex assay
Integrin alpha-V/beta-6 = Integrin alpha-V/beta-6 (Homo sapiens, UniProt P06756+P18564); assay: Inhibition of recombinant human Integrin alphaVbeta6 using TMB as substrate incubated for 2 hrs in presence of LAP by ELISA; format: protein-complex assay
Integrin alpha-V/beta-5 = Integrin alpha-V/beta-5 (Homo sapiens, UniProt P06756+P18084); assay: Inhibition of recombinant human Integrin alphaVbeta5 using TMB as substrate incubated for 2 hrs in presence of fibronectin by ELISA; format: protein-complex assay
Integrin alpha-5/beta-1 = Integrin alpha-5/beta-1 (Homo sapiens, UniProt P05556+P08648); assay: Inhibition of recombinant human Integrin alpha5beta1 using TMB as substrate incubated for 2 hrs in presence of fibronectin by ELISA; format: protein-complex assay
Integrin alpha-4/beta-1 = Integrin alpha-4/beta-1 (Homo sapiens, UniProt P05556+P13612); assay: Inhibition of recombinant human Integrin alpha4beta1 using TMB as substrate incubated for 2 hrs in presence of VCAM-1 by ELISA; format: protein-complex assay

Integrin alpha-V/beta-6, sequence (P06756 31-889 limits assumed): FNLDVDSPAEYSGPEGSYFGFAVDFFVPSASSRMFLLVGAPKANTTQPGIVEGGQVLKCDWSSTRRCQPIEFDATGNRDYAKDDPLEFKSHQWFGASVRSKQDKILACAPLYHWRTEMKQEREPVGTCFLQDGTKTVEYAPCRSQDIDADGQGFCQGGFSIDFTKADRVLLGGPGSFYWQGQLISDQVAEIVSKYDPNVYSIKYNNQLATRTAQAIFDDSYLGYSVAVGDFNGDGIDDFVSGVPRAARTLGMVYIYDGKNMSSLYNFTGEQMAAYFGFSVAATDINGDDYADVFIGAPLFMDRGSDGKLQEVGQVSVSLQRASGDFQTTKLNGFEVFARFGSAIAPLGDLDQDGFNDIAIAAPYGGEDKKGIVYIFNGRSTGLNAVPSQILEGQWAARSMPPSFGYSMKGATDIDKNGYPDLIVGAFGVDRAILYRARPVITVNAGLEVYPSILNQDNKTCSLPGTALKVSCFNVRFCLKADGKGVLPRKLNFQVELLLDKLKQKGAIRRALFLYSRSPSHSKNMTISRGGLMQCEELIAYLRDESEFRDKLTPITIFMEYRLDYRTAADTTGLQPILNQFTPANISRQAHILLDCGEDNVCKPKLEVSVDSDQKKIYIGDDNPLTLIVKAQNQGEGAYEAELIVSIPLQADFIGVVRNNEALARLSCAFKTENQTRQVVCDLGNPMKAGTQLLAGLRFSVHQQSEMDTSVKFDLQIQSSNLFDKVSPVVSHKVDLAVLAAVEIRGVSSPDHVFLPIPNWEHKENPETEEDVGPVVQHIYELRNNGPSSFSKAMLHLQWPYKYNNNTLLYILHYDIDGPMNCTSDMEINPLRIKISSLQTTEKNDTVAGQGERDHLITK
Integrin alpha-V/beta-6, sequence (P06756 891-1048 limits assumed): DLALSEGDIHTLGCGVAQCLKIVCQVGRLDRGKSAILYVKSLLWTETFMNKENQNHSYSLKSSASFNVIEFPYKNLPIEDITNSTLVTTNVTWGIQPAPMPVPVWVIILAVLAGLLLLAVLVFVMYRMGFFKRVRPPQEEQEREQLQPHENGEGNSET
Integrin alpha-V/beta-6, sequence (P18564 22-788 limits assumed): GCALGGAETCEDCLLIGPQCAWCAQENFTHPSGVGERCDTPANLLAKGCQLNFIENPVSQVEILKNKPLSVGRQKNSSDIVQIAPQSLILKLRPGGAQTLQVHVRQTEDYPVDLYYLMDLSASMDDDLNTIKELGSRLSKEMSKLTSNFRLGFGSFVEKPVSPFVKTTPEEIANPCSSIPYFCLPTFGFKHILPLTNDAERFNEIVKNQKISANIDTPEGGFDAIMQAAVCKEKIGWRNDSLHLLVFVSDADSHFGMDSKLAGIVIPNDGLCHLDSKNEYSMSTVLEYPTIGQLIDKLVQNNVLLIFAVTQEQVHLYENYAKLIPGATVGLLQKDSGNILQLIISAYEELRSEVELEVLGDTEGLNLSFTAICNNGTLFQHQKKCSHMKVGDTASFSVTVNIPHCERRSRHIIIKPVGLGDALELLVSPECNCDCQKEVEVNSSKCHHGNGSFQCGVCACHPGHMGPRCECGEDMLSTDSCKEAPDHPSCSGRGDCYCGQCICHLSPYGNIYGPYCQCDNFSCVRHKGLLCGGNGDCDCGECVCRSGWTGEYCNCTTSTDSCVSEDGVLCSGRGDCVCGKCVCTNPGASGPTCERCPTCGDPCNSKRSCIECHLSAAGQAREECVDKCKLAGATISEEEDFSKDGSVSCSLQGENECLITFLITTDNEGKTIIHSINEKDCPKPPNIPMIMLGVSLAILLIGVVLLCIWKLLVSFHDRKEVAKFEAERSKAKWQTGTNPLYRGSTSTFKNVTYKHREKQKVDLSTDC
Integrin alpha-V/beta-8, sequence (P06756 31-889 limits assumed): as the sequence (P06756 31-889 limits assumed) above
Integrin alpha-V/beta-8, sequence (P06756 891-1048 limits assumed): as the sequence (P06756 891-1048 limits assumed) above
Integrin alpha-V/beta-8, sequence (P26012 43-769 limits assumed): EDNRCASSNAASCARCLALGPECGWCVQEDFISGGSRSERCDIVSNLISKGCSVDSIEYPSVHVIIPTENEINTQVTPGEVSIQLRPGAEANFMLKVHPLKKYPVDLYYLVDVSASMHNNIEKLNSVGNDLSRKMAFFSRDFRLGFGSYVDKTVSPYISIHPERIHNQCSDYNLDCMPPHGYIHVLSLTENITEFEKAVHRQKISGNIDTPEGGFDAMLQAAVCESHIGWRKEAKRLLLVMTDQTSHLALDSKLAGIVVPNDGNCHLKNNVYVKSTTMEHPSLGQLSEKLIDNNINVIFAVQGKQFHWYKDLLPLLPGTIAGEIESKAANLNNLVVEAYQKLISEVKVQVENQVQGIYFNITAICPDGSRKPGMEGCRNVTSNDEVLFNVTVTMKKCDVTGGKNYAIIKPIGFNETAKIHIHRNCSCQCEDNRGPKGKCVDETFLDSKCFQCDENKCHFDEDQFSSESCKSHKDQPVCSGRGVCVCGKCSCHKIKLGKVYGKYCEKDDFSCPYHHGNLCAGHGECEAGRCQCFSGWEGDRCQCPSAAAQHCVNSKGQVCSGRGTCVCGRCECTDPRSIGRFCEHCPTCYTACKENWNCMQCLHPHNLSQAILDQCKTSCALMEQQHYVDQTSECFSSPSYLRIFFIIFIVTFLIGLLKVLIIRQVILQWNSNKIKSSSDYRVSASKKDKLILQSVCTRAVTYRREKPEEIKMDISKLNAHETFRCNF
Integrin alpha-V/beta-5, sequence (P06756 31-889 limits assumed): as the sequence (P06756 31-889 limits assumed) above
Integrin alpha-V/beta-5, sequence (P06756 891-1048 limits assumed): as the sequence (P06756 891-1048 limits assumed) above
Integrin alpha-V/beta-5, sequence (P18084 24-799 limits assumed): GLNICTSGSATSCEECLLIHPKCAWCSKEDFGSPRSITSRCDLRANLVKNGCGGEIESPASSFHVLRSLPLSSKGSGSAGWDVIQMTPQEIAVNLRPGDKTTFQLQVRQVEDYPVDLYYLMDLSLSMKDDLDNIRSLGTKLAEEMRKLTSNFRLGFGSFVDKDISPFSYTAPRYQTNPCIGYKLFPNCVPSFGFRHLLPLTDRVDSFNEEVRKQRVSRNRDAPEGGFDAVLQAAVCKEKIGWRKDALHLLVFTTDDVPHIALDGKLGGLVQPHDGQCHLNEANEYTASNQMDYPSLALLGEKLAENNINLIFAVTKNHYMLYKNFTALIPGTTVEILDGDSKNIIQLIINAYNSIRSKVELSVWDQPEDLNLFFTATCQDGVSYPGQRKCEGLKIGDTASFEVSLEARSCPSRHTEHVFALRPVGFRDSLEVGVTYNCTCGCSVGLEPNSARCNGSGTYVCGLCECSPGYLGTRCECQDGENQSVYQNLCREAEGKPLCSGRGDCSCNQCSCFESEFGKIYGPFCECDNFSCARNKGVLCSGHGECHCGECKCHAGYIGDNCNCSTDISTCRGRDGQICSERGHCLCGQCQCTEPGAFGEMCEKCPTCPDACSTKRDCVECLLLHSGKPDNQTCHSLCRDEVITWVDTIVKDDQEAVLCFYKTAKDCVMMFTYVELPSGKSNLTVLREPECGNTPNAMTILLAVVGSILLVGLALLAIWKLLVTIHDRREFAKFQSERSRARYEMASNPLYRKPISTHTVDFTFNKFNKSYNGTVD
Integrin alpha-V/beta-1, sequence (P05556 21-798 limits assumed): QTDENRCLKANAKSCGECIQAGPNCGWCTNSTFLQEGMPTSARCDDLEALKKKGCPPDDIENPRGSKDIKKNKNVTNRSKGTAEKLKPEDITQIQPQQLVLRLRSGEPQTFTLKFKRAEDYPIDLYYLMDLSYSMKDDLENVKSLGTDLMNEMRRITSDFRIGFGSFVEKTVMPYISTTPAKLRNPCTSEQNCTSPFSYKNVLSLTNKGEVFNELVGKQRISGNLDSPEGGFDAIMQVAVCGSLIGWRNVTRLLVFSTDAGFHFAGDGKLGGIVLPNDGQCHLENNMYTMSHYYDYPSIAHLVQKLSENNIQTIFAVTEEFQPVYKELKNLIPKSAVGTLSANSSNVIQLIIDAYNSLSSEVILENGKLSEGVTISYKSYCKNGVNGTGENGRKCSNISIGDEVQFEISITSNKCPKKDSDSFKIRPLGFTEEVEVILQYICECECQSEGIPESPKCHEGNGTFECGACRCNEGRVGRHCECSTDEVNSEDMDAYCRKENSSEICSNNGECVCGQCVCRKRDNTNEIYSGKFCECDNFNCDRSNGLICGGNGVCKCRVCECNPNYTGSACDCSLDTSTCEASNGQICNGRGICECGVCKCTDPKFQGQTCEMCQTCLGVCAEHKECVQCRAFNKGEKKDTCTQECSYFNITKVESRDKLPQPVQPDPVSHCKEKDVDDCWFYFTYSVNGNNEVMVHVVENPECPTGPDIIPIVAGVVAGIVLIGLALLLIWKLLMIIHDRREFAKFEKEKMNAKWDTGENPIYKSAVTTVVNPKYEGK
Integrin alpha-V/beta-1, sequence (P06756 31-889 limits assumed): as the sequence (P06756 31-889 limits assumed) above
Integrin alpha-V/beta-1, sequence (P06756 891-1048 limits assumed): as the sequence (P06756 891-1048 limits assumed) above

| Papp B→A at 1 h [1] | Papp A→B at 1 h [2] | IC50 (Integrin alpha-V/beta-1) | IC50 (Integrin alpha-V/beta-3) | IC50 (Integrin alpha-V/beta-8) | IC50 (Integrin alpha-V/beta-6) | IC50 (Integrin alpha-V/beta-5) | IC50 (Integrin alpha-5/beta-1) | IC50 (Integrin alpha-4/beta-1) | Compound |
| --- | --- | --- | --- | --- | --- | --- | --- | --- | --- |
| 0.7 ×10⁻⁶ cm/s | 0.9 ×10⁻⁶ cm/s | 0.631 nM | – | – | – | – | – | – | Cc1ccc(Cl)c(C(=O)N[C@@H](CNC(=O)Cn2c(=O)[nH]c3ncncc32)C(=O)O)c1F |
| – | – | 1.26 nM | > 10000 nM | 3980 nM | 6310 nM | > 10000 nM | 158 nM | 5010 nM | COc1cc(F)c(C(=O)N[C@@H](CNC(=O)Cn2c(=O)[nH]c3ncccc32)C(=O)O)c(Cl)c1 |
| 0.2 ×10⁻⁶ cm/s | 1.2 ×10⁻⁶ cm/s | 1 nM | – | – | – | – | – | – | Cc1ccc(Cl)c(C(=O)N[C@@H](CNC(=O)Cn2c(=O)[nH]c3cc(F)c(F)cc32)C(=O)O)c1F |
| 1.2 ×10⁻⁶ cm/s | 1.2 ×10⁻⁶ cm/s | 0.631 nM | – | – | – | – | – | – | COc1ccc(Cl)c(C(=O)N[C@@H](CNC(=O)Cn2c(=O)[nH]c3ccncc32)C(=O)O)c1F |
| – | – | 10 nM | > 10000 nM | > 10000 nM | > 10000 nM | > 10000 nM | 2510 nM | 5010 nM | Cc1cc(C#N)cc(C)c1C(=O)N[C@@H](CNC(=O)Cn1c(=O)[nH]c2ncccc21)C(=O)O |
| – | – | > 10000 nM | – | – | – | – | – | – | O=C(Cn1cnc2ccccc21)NC[C@H](NC(=O)c1ccccc1Cl)C(=O)O |
| – | – | 12.6 nM | > 10000 nM | > 10000 nM | 501 nM | > 10000 nM | 631 nM | 3160 nM | O=C(Cn1c(=O)[nH]c2ncccc21)NC[C@H](NC(=O)c1ccccc1Cl)C(=O)O |
| – | – | 5.01 nM | > 10000 nM | 7940 nM | > 10000 nM | > 10000 nM | 398 nM | 2510 nM | O=C(Cn1c(=O)[nH]c2ncccc21)NC[C@H](NC(=O)c1c(F)cccc1Cl)C(=O)O |
| – | – | > 10000 nM | – | – | – | – | – | – | O=C(CN1C(=O)Cc2ccccc21)NC[C@H](NC(=O)c1ccccc1Cl)C(=O)O |
| – | – | 20 nM | > 10000 nM | > 10000 nM | > 10000 nM | > 10000 nM | 1260 nM | 2000 nM | O=C(Cn1c(=O)[nH]c2ccccc21)NC[C@H](NC(=O)c1c(Cl)cccc1Cl)C(=O)O |
| 0.6 ×10⁻⁶ cm/s | 0.8 ×10⁻⁶ cm/s | 1.58 nM | – | – | – | – | – | – | Cc1cc2[nH]c(=O)n(CC(=O)NC[C@H](NC(=O)c3c(Cl)ccc(C)c3F)C(=O)O)c2cc1C |
| – | – | 316 nM | – | – | – | – | – | – | O=C(CN1C(=O)NCc2ccccc21)NC[C@H](NC(=O)c1ccccc1Cl)C(=O)O |

— ChEMBL document CHEMBL5500400, “Design and Discovery of a Potent and Selective Inhibitor of Integrin αvβ1” (J Med Chem, 2024)
